Data set [1] concerns the target T1, Glucocorticoid receptor (Homo sapiens, UniProt P04150).
T1 sequence (P04150 whole entry): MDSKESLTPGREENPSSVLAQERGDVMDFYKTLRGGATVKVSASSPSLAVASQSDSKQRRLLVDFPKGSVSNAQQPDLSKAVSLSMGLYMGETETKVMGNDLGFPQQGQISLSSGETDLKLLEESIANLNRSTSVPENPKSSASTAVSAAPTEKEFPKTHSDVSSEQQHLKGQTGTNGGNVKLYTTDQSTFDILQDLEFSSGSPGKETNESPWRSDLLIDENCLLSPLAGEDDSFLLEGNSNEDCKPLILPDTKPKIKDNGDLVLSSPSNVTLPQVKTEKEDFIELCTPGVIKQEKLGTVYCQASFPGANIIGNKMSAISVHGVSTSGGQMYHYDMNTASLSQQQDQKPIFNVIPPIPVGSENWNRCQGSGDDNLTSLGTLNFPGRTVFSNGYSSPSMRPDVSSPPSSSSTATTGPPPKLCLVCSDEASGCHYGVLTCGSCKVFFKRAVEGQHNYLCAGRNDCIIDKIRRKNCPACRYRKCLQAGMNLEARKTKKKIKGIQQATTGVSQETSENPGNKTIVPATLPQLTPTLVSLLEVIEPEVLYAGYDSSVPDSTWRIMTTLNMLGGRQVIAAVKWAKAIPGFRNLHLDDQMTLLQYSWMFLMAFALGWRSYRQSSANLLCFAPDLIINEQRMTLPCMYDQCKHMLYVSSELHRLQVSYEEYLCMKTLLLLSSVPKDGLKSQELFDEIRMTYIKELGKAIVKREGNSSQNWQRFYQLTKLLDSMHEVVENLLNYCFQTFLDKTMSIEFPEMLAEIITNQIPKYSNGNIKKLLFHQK
In words: Binding affinity to human recombinant GR by competition ligand binding fluorescence polarization assay. In general terms: In fluorescence polarisation assays a small probe gives low polarisation when free and higher when bound to something large.

Data set [2] addresses T2, Progesterone receptor (Homo sapiens, UniProt P06401).
T2 sequence (P06401 whole entry): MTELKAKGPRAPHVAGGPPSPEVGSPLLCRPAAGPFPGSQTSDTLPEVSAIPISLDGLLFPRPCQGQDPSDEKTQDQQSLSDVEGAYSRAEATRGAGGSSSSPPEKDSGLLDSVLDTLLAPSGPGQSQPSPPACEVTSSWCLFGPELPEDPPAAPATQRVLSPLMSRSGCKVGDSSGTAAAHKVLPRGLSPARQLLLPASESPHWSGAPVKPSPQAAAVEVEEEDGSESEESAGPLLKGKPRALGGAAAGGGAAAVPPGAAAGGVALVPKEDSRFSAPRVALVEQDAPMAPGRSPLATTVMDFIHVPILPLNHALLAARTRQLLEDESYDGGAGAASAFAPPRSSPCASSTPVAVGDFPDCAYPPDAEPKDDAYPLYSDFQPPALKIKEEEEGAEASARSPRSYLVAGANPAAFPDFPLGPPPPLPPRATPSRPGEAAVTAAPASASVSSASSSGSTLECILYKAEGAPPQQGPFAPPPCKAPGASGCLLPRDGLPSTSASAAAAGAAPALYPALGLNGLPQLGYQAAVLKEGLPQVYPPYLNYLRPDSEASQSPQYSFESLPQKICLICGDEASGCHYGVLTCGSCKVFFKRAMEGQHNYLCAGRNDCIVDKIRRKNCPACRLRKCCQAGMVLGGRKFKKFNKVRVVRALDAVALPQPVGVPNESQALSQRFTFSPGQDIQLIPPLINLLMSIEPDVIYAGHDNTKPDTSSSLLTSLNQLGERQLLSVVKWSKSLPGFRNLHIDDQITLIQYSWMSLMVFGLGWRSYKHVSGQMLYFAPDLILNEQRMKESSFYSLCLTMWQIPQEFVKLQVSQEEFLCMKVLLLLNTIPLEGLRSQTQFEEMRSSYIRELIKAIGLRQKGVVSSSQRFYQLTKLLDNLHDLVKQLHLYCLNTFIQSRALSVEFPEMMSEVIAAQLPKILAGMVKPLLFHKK
In words: Binding affinity to human recombinant PR by competition ligand binding fluorescence polarization assay.

Data set [3] can be described thus: Intrinsic clearance in human liver microsomes measured per mg of protein. The data set is classed as ADME, Microsome. A general note: Liver microsomes are a subcellular fraction often used to study metabolism.
A short description of data set [4]: Intrinsic clearance in rat liver microsomes measured per mg of protein. The data set is classed as ADME, Microsome.
Data set [5] addresses T1, Glucocorticoid receptor. In words: Antagonist activity at human GR […] domain transfected in CHO cells co-transfected with MMTV-luciferase gene assessed as inhibition of cortisol-induced luciferase activity. The data set is classed as cell-based.
A short description of data set [6]: Volume of distribution at steady state in Wistar rat at 2 mg/kg, iv; 10 mg/kg, po. The data set is classed as ADME, organism-based. The note with it: in vivo, read-out: Vdss.
In data set [7] the target is T3, Mineralocorticoid receptor (Homo sapiens, UniProt P08235).
T3 sequence (P08235 whole entry): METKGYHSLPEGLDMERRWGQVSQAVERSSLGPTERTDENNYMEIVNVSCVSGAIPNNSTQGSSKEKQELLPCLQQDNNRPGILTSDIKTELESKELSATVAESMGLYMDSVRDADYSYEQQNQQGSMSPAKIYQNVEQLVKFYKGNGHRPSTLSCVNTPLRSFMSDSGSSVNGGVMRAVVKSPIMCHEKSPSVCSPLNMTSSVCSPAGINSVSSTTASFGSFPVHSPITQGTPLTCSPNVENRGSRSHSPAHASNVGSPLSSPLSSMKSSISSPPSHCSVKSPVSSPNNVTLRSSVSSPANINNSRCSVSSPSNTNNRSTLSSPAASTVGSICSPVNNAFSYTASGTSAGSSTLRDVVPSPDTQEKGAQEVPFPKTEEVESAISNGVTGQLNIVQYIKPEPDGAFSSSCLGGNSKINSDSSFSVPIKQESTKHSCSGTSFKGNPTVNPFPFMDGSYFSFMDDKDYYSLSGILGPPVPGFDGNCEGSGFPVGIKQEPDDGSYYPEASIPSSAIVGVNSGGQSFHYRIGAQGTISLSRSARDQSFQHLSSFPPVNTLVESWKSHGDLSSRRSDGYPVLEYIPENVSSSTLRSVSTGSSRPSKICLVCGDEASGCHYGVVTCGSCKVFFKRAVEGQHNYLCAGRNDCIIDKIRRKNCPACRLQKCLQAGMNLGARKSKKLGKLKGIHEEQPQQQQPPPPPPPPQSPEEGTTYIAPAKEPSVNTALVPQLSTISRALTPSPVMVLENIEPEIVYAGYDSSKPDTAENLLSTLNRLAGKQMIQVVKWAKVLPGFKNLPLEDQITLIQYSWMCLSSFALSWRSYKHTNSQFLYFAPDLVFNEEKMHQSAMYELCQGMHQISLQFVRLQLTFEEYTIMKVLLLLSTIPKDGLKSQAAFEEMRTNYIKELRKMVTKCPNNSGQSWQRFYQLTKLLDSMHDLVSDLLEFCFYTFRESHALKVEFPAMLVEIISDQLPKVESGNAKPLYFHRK
In words: Antagonist activity at human MR ligand binding domain transfected in CHO cells co-transfected with MMTV-luciferase gene assessed as inhibition of cortisol-induced luciferase activity. Format: cell-based.

Data set [8] can be described thus: Plasma clearance in Wistar rat at 2 mg/kg, iv; 10 mg/kg, po. Format: ADME, organism-based.
The nature of data set [9]: Solubility of the compound in PBS at pH 7.4. Format: physicochemical.
The nature of data set [10]: Oral bioavailability in Wistar rat at 10 mg/kg. The note with it: in vivo. The data set is classed as ADME, organism-based.

This note sets out measurements from ChEMBL document CHEMBL1641565, “Discovery and optimisation of a selective non-steroidal glucocorticoid receptor antagonist” (Bioorg Med Chem Lett, 2011).

The term EC50 denotes the concentration that produces a half-maximal response. For orientation: microsomal CLint means the rate of metabolic loss divided by the concentration. Lower therefore signals slow turnover. What is called solubility is the dissolved amount per volume that the medium holds. As usually defined, the bioavailability is the share of a dose that reaches the circulation, judged against a reference dose that is usually intravenous. Read a high bioavailability as much systemic uptake.

Values after ≈ are worked out from the molar mass of the structure shown.

Turning to `COc1ccc(F)cc1-c1ccc([C@@H](C)NS(=O)(=O)c2c(C)noc2C)cc1`, the EC50 in data set [1] was 5.01 nM; in data set [2] it was 200 nM.

Take `Cc1noc(C)c1-c1ccc(CNS(=O)(=O)c2c(C)noc2C)cc1`: the EC50 in data set [1] was 3.98 nM; in data set [2], 7.94 nM.

For the compound `Cc1noc(C)c1S(=O)(=O)NCc1ccc(-c2ccccc2)cc1`, the EC50 was 1000 nM in data set [1] and over 10000 nM in data set [2].

For `COc1ccccc1-c1ccc(CNS(=O)(=O)c2c(C)noc2C)cc1`, the EC50 in data set [1] is 31.6 nM; in [2] it was 200 nM.

Take `COc1ccc(F)cc1-c1ccc(CNS(=O)(=O)c2c(C)noc2C)cc1`: the EC50 in data set [1] was 12.6 nM; in data set [2], 126 nM.

Turning to `COc1ccc(F)cc1-c1ccc(CNS(=O)(=O)c2cc(Cl)ccc2Cl)cc1`, the EC50 in data set [1] was 2 nM; in [2] it was 50.1 nM.

As to `COc1ccc(F)cc1-c1ccc([C@H](C)NS(=O)(=O)c2c(C)noc2C)cc1`, the EC50 in [1] was 25.1 nM; in [2] it was 251 nM.

Regarding `COc1ncccc1-c1ccc([C@@H](C)NS(=O)(=O)c2c(C)noc2C)cc1`, the EC50 is 25.1 nM in data set [1] and 794 nM in [2].

The compound `Cc1noc(C)c1S(=O)(=O)N[C@H](C)c1ccc(-c2cccnc2OC(F)F)cc1` returned a microsomal CLint in [3] of over 270 µL/min/mg. The EC50 is 10 nM in data set [1] and 631 nM in data set [2].

Take `COc1ncc(C#N)cc1-c1ccc([C@@H](C)NS(=O)(=O)c2c(C)noc2C)cc1`: the EC50 in data set [1] is 6.31 nM; in data set [2], 79.4 nM.

In the case of `COc1ccc(F)cc1-c1ccc([C@@H](C)NS(=O)(=O)c2cn(C)nc2C(F)(F)F)cc1`, the EC50 is 3.98 nM in [1] and 794 nM in data set [2].

Regarding `COc1ncccc1-c1ccc([C@@H](C)NS(=O)(=O)c2cn(C)nc2C(F)(F)F)cc1`, the EC50 is 12.6 nM in data set [1] and over 10000 nM in data set [2].

In the case of `COc1ncc(C#N)cc1-c1ccc([C@@H](C)NS(=O)(=O)c2cn(C)nc2C(F)(F)F)cc1`, the microsomal CLint in data set [4] and in [3] was under 12 µL/min/mg each time. In addition, the EC50 in data set [5] is 100 nM; in data set [7] it was over 10000 nM; in data set [1] it was 12.6 nM; in data set [2], over 10000 nM. Further, the Vd in [6] turned out to be 0.7 L/kg. The same compound returned a clearance in [8] of 9.8 mL/min/kg. The compound also registered a solubility in data set [9] of 28.9 µg/mL (≈ 62.1 µM). Besides, the bioavailability in data set [10] came out at 42%.
